Source: the supplement of paper PMC10307832

Legend:
Experiment in all cases: relative viability (nuclei count vs DMSO), 5 days (fraction); higher = more cells survive
[1] = test system: HCC-827
Procedure, shortened: (§1)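 Relative viability was taken as the ratio of nuclei in treated wells to nuclei in vehicle wells. Lung cancer cell lines in 1536-well plates received compounds by pin tool one day after seeding, either one drug alone or a fixed anchor-drug dose plus five library-drug doses (not always all listed) in √10 steps. Nuclei were counted on 4× images after 5 days of treatment, and values are medians of duplicate plates.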

[2] = test system: NCI-H520
Procedure, shortened: as §1

[3] = test system: EMC-BAC-2
Procedure, shortened: as §1

[4] = test system: ChaGo-K-1
Procedure, shortened: as §1

[5] = test system: NCI-H1563
Procedure, shortened: as §1

[6] = test system: NCI-H1944
Procedure, shortened: as §1

[7] = test system: NCI-H2087
Procedure, shortened: as §1

[8] = test system: NCI-H2405
Procedure, shortened: as §1

[9] = test system: SK-MES-1
Procedure, shortened: as §1

[10] = test system: NCI-H1355
Procedure, shortened: as §1

[11] = test system: LCLC-97TM1
Procedure, shortened: as §1

[12] = test system: NCI-H322M
Procedure, shortened: as §1

[13] = test system: NCI-H2085
Procedure, shortened: as §1

[14] = test system: LCLC-103H
Procedure, shortened: as §1

[15] = test system: UMC-11
Procedure, shortened: as §1

[16] = test system: NCI-H650
Procedure, shortened: as §1

[17] = test system: HCC-44
Procedure, shortened: as §1

[18] = test system: EPLC-272H
Procedure, shortened: as §1

[19] = test system: NCI-H1651
Procedure, shortened: as §1

[20] = test system: NCI-H1793
Procedure, shortened: as §1

[21] = test system: H3255
Procedure, shortened: as §1

[22] = test system: NCI-H1395
Procedure, shortened: as §1

[23] = test system: NCI-H2023
Procedure, shortened: as §1

With `C=C1C(=O)O[C@@H](CCCCCCCC)[C@@H]1C(=O)O` [C-75] + CCNC(=O)c1noc(-c2cc(C(C)C)c(O)cc2O)c1-c1ccc(CN2CCOCC2)cc1 [Luminespib] (partner 0.01 µM) the relative viability ([1]; first compound 0.08 µM) was 0.519, the relative viability ([1]; first compound 0.253 µM) was 0.703 and the relative viability ([1]; first compound 0.8 µM) was 0.825. It also gave a relative viability ([1]; first compound 2.53 µM) of 0.42, a relative viability ([1]; first compound 8 µM) of 0.566 and a relative viability ([2]; first compound 0.08 µM) of 0.233. The relative viability ([2]; first compound 0.253 µM) was 0.214, the relative viability ([2]; first compound 0.8 µM) was 0.217 and the relative viability ([2]; first compound 2.53 µM) was 0.208. It also gave a relative viability ([2]; first compound 8 µM) of 0.331, a relative viability ([3]; first compound 0.08 µM) of 1.25 and a relative viability ([3]; first compound 0.253 µM) of 1.24. For the same molecule, the relative viability ([3]; first compound 0.8 µM) was 1.05, the relative viability ([3]; first compound 2.53 µM) was 0.876 and the relative viability ([3]; first compound 8 µM) was 1.18. The relative viability ([4]; first compound 0.08 µM) was 0.524, the relative viability ([4]; first compound 0.253 µM) was 0.587 and the relative viability ([4]; first compound 0.8 µM) was 0.598. It also gave a relative viability ([4]; first compound 2.53 µM) of 0.638, a relative viability ([4]; first compound 8 µM) of 0.478 and a relative viability ([5]; first compound 0.08 µM) of 0.498. The relative viability ([5]; first compound 0.253 µM) was 0.535, the relative viability ([5]; first compound 0.8 µM) was 0.531 and the relative viability ([5]; first compound 2.53 µM) was 0.483. It also gave a relative viability ([5]; first compound 8 µM) of 0.557, a relative viability ([6]; first compound 0.08 µM) of 0.777 and a relative viability ([6]; first compound 0.253 µM) of 0.642. For the same molecule, the relative viability ([6]; first compound 0.8 µM) was 0.684, the relative viability ([6]; first compound 8 µM) was 0.761 and the relative viability ([7]; first compound 0.08 µM) was 0.162. For the same molecule, the relative viability ([7]; first compound 0.253 µM) was 0.218, the relative viability ([7]; first compound 0.8 µM) was 0.141 and the relative viability ([7]; first compound 2.53 µM) was 0.166. The relative viability ([7]; first compound 8 µM) was 0.217, the relative viability ([8]; first compound 0.08 µM) was 0.822 and the relative viability ([8]; first compound 0.253 µM) was 0.478. The relative viability ([8]; first compound 0.8 µM) was 0.716, the relative viability ([8]; first compound 2.53 µM) was 0.558 and the relative viability ([8]; first compound 8 µM) was 0.869. For the same molecule, the relative viability ([9]; first compound 0.08 µM) was 0.756, the relative viability ([9]; first compound 0.253 µM) was 0.73 and the relative viability ([9]; first compound 0.8 µM) was 0.685. For the same molecule, the relative viability ([9]; first compound 2.53 µM) was 0.652, the relative viability ([9]; first compound 8 µM) was 0.552 and the relative viability ([10]; first compound 0.08 µM) was 0.621. For the same molecule, the relative viability ([10]; first compound 0.253 µM) was 0.668, the relative viability ([10]; first compound 0.8 µM) was 0.641 and the relative viability ([10]; first compound 2.53 µM) was 0.394. The relative viability ([10]; first compound 8 µM) was 0.615, the relative viability ([11]; first compound 0.08 µM) was 0.731 and the relative viability ([11]; first compound 0.253 µM) was 0.808. The relative viability ([11]; first compound 0.8 µM) was 0.852, the relative viability ([11]; first compound 2.53 µM) was 0.452 and the relative viability ([11]; first compound 8 µM) was 0.801. The relative viability ([12]; first compound 0.08 µM) was 0.928, the relative viability ([12]; first compound 0.253 µM) was 1.24 and the relative viability ([12]; first compound 0.8 µM) was 0.816. The relative viability ([12]; first compound 2.53 µM) was 0.879, the relative viability ([12]; first compound 8 µM) was 0.829 and the relative viability ([13]; first compound 0.08 µM) was 0.427. The relative viability ([13]; first compound 0.253 µM) was 0.416, the relative viability ([13]; first compound 0.8 µM) was 0.38 and the relative viability ([13]; first compound 2.53 µM) was 0.366. It also gave a relative viability ([13]; first compound 8 µM) of 0.417, a relative viability ([14]; first compound 0.08 µM) of 0.912 and a relative viability ([14]; first compound 0.253 µM) of 1.02. The relative viability ([14]; first compound 0.8 µM) was 0.83, the relative viability ([14]; first compound 2.53 µM) was 0.932 and the relative viability ([14]; first compound 8 µM) was 0.888. It also gave a relative viability ([15]; first compound 0.08 µM) of 0.992, a relative viability ([15]; first compound 0.253 µM) of 1.01 and a relative viability ([15]; first compound 0.8 µM) of 1.03. For the same molecule, the relative viability ([15]; first compound 2.53 µM) was 0.712, the relative viability ([15]; first compound 8 µM) was 0.742 and the relative viability ([16]; first compound 0.08 µM) was 0.685. The relative viability ([16]; first compound 0.253 µM) was 0.737, the relative viability ([16]; first compound 0.8 µM) was 0.818 and the relative viability ([16]; first compound 2.53 µM) was 0.684. For the same molecule, the relative viability ([16]; first compound 8 µM) was 0.788, the relative viability ([17]; first compound 0.08 µM) was 0.966 and the relative viability ([17]; first compound 0.253 µM) was 0.984. For the same molecule, the relative viability ([17]; first compound 0.8 µM) was 1, the relative viability ([17]; first compound 2.53 µM) was 0.89 and the relative viability ([17]; first compound 8 µM) was 0.729. For the same molecule, the relative viability ([18]; first compound 0.08 µM) was 0.302, the relative viability ([18]; first compound 0.253 µM) was 0.308 and the relative viability ([18]; first compound 0.8 µM) was 0.297. It also gave a relative viability ([18]; first compound 2.53 µM) of 0.202, a relative viability ([18]; first compound 8 µM) of 0.159 and a relative viability ([19]; first compound 0.08 µM) of 0.817. The relative viability ([19]; first compound 0.253 µM) was 0.939, the relative viability ([19]; first compound 0.8 µM) was 0.829 and the relative viability ([19]; first compound 2.53 µM) was 0.672. It also gave a relative viability ([19]; first compound 8 µM) of 0.934, a relative viability ([20]; first compound 0.08 µM) of 0.18 and a relative viability ([20]; first compound 0.253 µM) of 0.148. It also gave a relative viability ([20]; first compound 0.8 µM) of 0.141, a relative viability ([20]; first compound 2.53 µM) of 0.264 and a relative viability ([20]; first compound 8 µM) of 0.224. For the same molecule, the relative viability ([21]; first compound 0.08 µM) was 0.935, the relative viability ([21]; first compound 0.253 µM) was 1.02 and the relative viability ([21]; first compound 0.8 µM) was 0.794. The relative viability ([21]; first compound 2.53 µM) was 0.723, the relative viability ([21]; first compound 8 µM) was 0.977 and the relative viability ([22]; first compound 0.08 µM) was 0.613. The relative viability ([22]; first compound 0.253 µM) was 0.574, the relative viability ([22]; first compound 0.8 µM) was 0.713 and the relative viability ([22]; first compound 2.53 µM) was 0.755. It also gave a relative viability ([22]; first compound 8 µM) of 0.686, a relative viability ([23]; first compound 0.08 µM) of 0.746 and a relative viability ([23]; first compound 0.253 µM) of 0.921. It also gave a relative viability ([23]; first compound 0.8 µM) of 0.706 and a relative viability ([23]; first compound 8 µM) of 0.696.
